Tested on: M. tuberculosis moxifloxacin resistant mutants (G88C, A90V, D94G in gyrase A) and H37Rv
Assay type: cell-based, Mycobacterium tuberculosis

Compound: Cc1cc(=O)oc2cc(OCCN3CCN(Cc4ccc(Br)cc4)CC3)ccc12 [CM12]
- activity in fluoroquinolone resistant strains: maintained potency in all evaluated strains
- growth inhibition compared with moxifloxacin: growth inhibition in similar ranges to moxifloxacin

Compound: Cc1c(C#N)c(=O)oc2cc(OCCN3CCN(Cc4ccc(Br)cc4)CC3)ccc12 [CM14]
- activity in fluoroquinolone resistant strains: maintained potency in all evaluated strains
- growth inhibition compared with moxifloxacin: growth inhibition in similar ranges to moxifloxacin
